Test results as given in PubChem BioAssay AID330 (DTP/NCI, 2004).
“And” between values parts separate entries of the source, which are not always exact repeats. Equal entries are not always repeated. Inconclusive results and toxic doses are left out. Rule for the calls: active = survival T/C of 150% or more; inactive = T/C below 125% in these data.

System: P388 leukemia ip, CD2F1 mice, survival T/C
Assay: NCI In Vivo Anticancer Drug Screen. Data for tumor model P388 Leukemia (intraperitoneal) in CD2F1 (CDF1) mice
Settings: endpoint: median survival time, higher = longer survival
In short: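 Mice carrying the transplanted tumor received test compound or vehicle. Survival was recorded in each group, and the value is the treated-group measurement divided by that of the vehicle-treated control group.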

[1] = dose: 100.0 mg/kg/injection, schedule: Q01DX009 (ip), vehicle: saline
[2] = dose: 200.0 mg/kg/injection, schedule: Q01DX009 (ip), vehicle: saline
[3] = dose: 60.0 mg/kg/injection, schedule: Q01DX005 (ip), vehicle: saline with Tween-80
[4] = dose: 240.0 mg/kg/injection, schedule: Q01DX005 (ip), vehicle: saline with Tween-80
[5] = dose: 60.0 mg/kg/injection, schedule: Q01DX005 (ip), vehicle: Klucel (hydroxypropylcellulose) (HPC)
[6] = dose: 120.0 mg/kg/injection, schedule: Q01DX005 (ip), vehicle: saline with Tween-80
[7] = dose: 50.0 mg/kg/injection, schedule: Q01DX005 (ip), vehicle: saline with Tween-80
[8] = dose: 100.0 mg/kg/injection, schedule: Q01DX005 (ip), vehicle: saline with Tween-80
[9] = dose: 200.0 mg/kg/injection, schedule: Q01DX005 (ip), vehicle: saline with Tween-80
[10] = dose: 100.0 mg/kg/injection, schedule: Q01DX009 (ip), vehicle: saline with Tween-80
[11] = dose: 200.0 mg/kg/injection, schedule: Q01DX009 (ip), vehicle: saline with Tween-80
[12] = dose: 400.0 mg/kg/injection, schedule: Q01DX009 (ip), vehicle: saline with Tween-80

Measured: T/C

O=C1CSCc2nc3ccccc3n21
inactive: dose: 100.0 mg/kg/injection, schedule: Q01DX001 (ip), vehicle: saline 95 % of control | [1] 103 % of control | dose: 200.0 mg/kg/injection, schedule: Q01DX001 (ip), vehicle: saline 104 % of control | [2] 103 % of control | dose: 400.0 mg/kg/injection, schedule: Q01DX001 (ip), vehicle: saline 104 % of control

O=C(Nc1ccc(Oc2ccc(Cl)cc2)c(Cl)c1)c1cc(I)cc(I)c1O
inactive: dose: 12.5 mg/kg/injection, schedule: Q01DX005 (ip), vehicle: Klucel (hydroxypropylcellulose) (HPC) 96 % of control | dose: 25.0 mg/kg/injection, schedule: Q01DX005 (ip), vehicle: Klucel (hydroxypropylcellulose) (HPC) 109 % of control | dose: 50.0 mg/kg/injection, schedule: Q01DX005 (ip), vehicle: Klucel (hydroxypropylcellulose) (HPC) 101 % of control and 115 % of control

CS(=O)(=O)C12CCCN1C(=O)C1CCCN1C2=O (centres undefined)
inactive: dose: 50.0 mg/kg/injection, schedule: Q01DX009 (ip), vehicle: saline 99 % of control | [1] 102 % of control | [2] 90 % of control

c1ccc(-c2nc3ccccc3nc2-c2ccc(-c3ccc(-c4nc5ccccc5nc4-c4ccccc4)cc3)cc2)cc1
inactive: dose: 6.25 mg/kg/injection, schedule: Q01DX009 (ip), vehicle: saline with Tween-80 88 % of control and 96 % of control | dose: 12.5 mg/kg/injection, schedule: Q01DX009 (ip), vehicle: saline with Tween-80 101 % of control and 90 % of control | dose: 25.0 mg/kg/injection, schedule: Q01DX009 (ip), vehicle: saline with Tween-80 99 % of control and 120 % of control and 92 % of control | dose: 50.0 mg/kg/injection, schedule: Q01DX009 (ip), vehicle: saline with Tween-80 114 % of control and 87 % of control

O=C(O)c1cccnc1C(=O)Nc1cccc2ccccc12
inactive: dose: 15.0 mg/kg/injection, schedule: Q01DX005 (ip), vehicle: saline with Tween-80 102 % of control | dose: 30.0 mg/kg/injection, schedule: Q01DX005 (ip), vehicle: saline with Tween-80 98 % of control | [3] 99 % of control (2×) and 93 % of control | [4] 86 % of control and 92 % of control

O=C(NCC1CC1)NC(=O)c1c(F)cccc1Cl
inactive: [5] 102 % of control | dose: 120.0 mg/kg/injection, schedule: Q01DX005 (ip), vehicle: Klucel (hydroxypropylcellulose) (HPC) 106 % of control | dose: 240.0 mg/kg/injection, schedule: Q01DX005 (ip), vehicle: Klucel (hydroxypropylcellulose) (HPC) 106 % of control

COC(=O)N1c2ccccc2SC1C#N (centres undefined)
inactive: [3] 96 % of control | [6] 112 % of control | [4] 106 % of control

C/C(=N/NC(=S)NNC(=S)N(C)c1ccccc1)c1nccc2ccccc12
inactive: [7] 102 % of control | [8] 101 % of control | [9] 104 % of control

O=C(c1ccc(-c2ccccc2)cc1)C1(Br)CCCCC1
inactive: [10] 100 % of control | [11] 100 % of control | [12] 100 % of control

O=C(O)Cc1ccc2c(c1)sc1nc(-c3ccc(Br)cc3)cn12
inactive: dose: 100.0 mg/kg/injection, schedule: Q04DX003 (ip), vehicle: Klucel (hydroxypropylcellulose) (HPC) 101 % of control | dose: 200.0 mg/kg/injection, schedule: Q04DX003 (ip), vehicle: Klucel (hydroxypropylcellulose) (HPC) 103 % of control | dose: 400.0 mg/kg/injection, schedule: Q04DX003 (ip), vehicle: Klucel (hydroxypropylcellulose) (HPC) 103 % of control

Cc1cc(N=[N+]=[N-])c2cc3c(cc2n1)OCO3
inactive: [3] 103 % of control | [6] 95 % of control | [4] 94 % of control

Cc1ccc(NC2SC(=O)N(Cc3ccccc3)/C2=N/N=C2\C(Nc3ccc(C)cc3)SC(=O)N2Cc2ccccc2)cc1 (centres undefined)
inactive: dose: 100.0 mg/kg/injection, schedule: Q04DX002 (ip), vehicle: Klucel (hydroxypropylcellulose) (HPC) 97 % of control | dose: 200.0 mg/kg/injection, schedule: Q04DX002 (ip), vehicle: Klucel (hydroxypropylcellulose) (HPC) 97 % of control | dose: 400.0 mg/kg/injection, schedule: Q04DX002 (ip), vehicle: Klucel (hydroxypropylcellulose) (HPC) 97 % of control

O=NN(CCCl)C(=O)NC1CCN(Cc2ccccc2)CC1
active: dose: 12.5 mg/kg/injection, schedule: Q04DX003 (ip), vehicle: other 154 % of control | dose: 12.5 mg/kg/injection, schedule: Q04DX003 (ip), vehicle: water 184 % of control | dose: 25.0 mg/kg/injection, schedule: Q04DX003 (ip), vehicle: other 183 % of control | dose: 25.0 mg/kg/injection, schedule: Q04DX003 (ip), vehicle: water 225 % of control | dose: 50.0 mg/kg/injection, schedule: Q04DX003 (ip), vehicle: other 287 % of control | dose: 50.0 mg/kg/injection, schedule: Q04DX003 (ip), vehicle: water 281 % of control | dose: 100.0 mg/kg/injection, schedule: Q04DX003 (ip), vehicle: other 361 % of control

O=CNC(Cc1cccc(N(CCCl)CCCl)c1)C(=O)O (centres undefined)
inactive: dose: 25.0 mg/kg/injection, schedule: Q01DX009 (ip), vehicle: saline sonified 95 % of control

COc1cc(/C=N/NC(=O)C(N)Cc2ccc(O)cc2)ccc1O (centres undefined)
inactive: [7] 100 % of control | [8] 94 % of control | [9] 103 % of control

CC12C=C(C(=O)c3ccccc3)C(CC1)C2(C)C (centres undefined)
inactive: [10] 100 % of control | [11] 95 % of control | [12] 90 % of control

CC(=O)CC(c1ccccc1)C(C#N)c1ccccc1 (centres undefined)
inactive: dose: 12.5 mg/kg/injection, schedule: Q04DX003 (ip), vehicle: Klucel (hydroxypropylcellulose) (HPC) 118 % of control | dose: 25.0 mg/kg/injection, schedule: Q04DX003 (ip), vehicle: Klucel (hydroxypropylcellulose) (HPC) 106 % of control | dose: 50.0 mg/kg/injection, schedule: Q04DX003 (ip), vehicle: Klucel (hydroxypropylcellulose) (HPC) 106 % of control

CCCCN(CCCC)C(=S)S
inactive: dose: 15.0 mg/kg/injection, schedule: Q01DX005 (ip), vehicle: Klucel (hydroxypropylcellulose) (HPC) 105 % of control | dose: 30.0 mg/kg/injection, schedule: Q01DX005 (ip), vehicle: Klucel (hydroxypropylcellulose) (HPC) 98 % of control | [5] 88 % of control

C[CH2][Sn][CH2]C.O=C(CC(=O)c1ccccc1)c1ccccc1.O=C(CC(=O)c1ccccc1)c1ccccc1
inactive: dose: 12.5 mg/kg/injection, schedule: Q01DX001 (ip), vehicle: Klucel (hydroxypropylcellulose) (HPC) 115 % of control | dose: 25.0 mg/kg/injection, schedule: Q01DX001 (ip), vehicle: Klucel (hydroxypropylcellulose) (HPC) 111 % of control | dose: 50.0 mg/kg/injection, schedule: Q01DX001 (ip), vehicle: Klucel (hydroxypropylcellulose) (HPC) 115 % of control | dose: 100.0 mg/kg/injection, schedule: Q01DX001 (ip), vehicle: Klucel (hydroxypropylcellulose) (HPC) 110 % of control | dose: 400.0 mg/kg/injection, schedule: Q01DX001 (ip), vehicle: Klucel (hydroxypropylcellulose) (HPC) 115 % of control

Oc1ccc(Nc2ccnc3cc(Cl)ccc23)cc1CN(CCCl)CCCl
inactive: dose: 0.16 mg/kg/injection, schedule: Q01DX009 (ip), vehicle: saline 119 % of control | dose: 0.31 mg/kg/injection, schedule: Q01DX009 (ip), vehicle: saline 123 % of control | dose: 1.25 mg/kg/injection, schedule: Q01DX009 (ip), vehicle: saline 101 % of control
active: dose: 0.63 mg/kg/injection, schedule: Q01DX009 (ip), vehicle: saline 150 % of control | dose: 2.5 mg/kg/injection, schedule: Q01DX009 (ip), vehicle: saline 153 % of control and 156 % of control

CCOc1cc(/C=N\Nc2nnc(C)n2N)c(C)cc1N(CCCl)CCCl
inactive: dose: 0.22 mg/kg/injection, schedule: Q01DX009 (ip), vehicle: saline with Tween-80 110 % of control | dose: 0.33 mg/kg/injection, schedule: Q01DX009 (ip), vehicle: saline with Tween-80 105 % of control | dose: 0.5 mg/kg/injection, schedule: Q01DX009 (ip), vehicle: saline with Tween-80 110 % of control | dose: 0.75 mg/kg/injection, schedule: Q01DX009 (ip), vehicle: saline with Tween-80 120 % of control | dose: 1.25 mg/kg/injection, schedule: Q04DX003 (ip), vehicle: saline 100 % of control | dose: 2.5 mg/kg/injection, schedule: Q04DX003 (ip), vehicle: saline 100 % of control | dose: 5.0 mg/kg/injection, schedule: Q04DX003 (ip), vehicle: saline 103 % of control
active: dose: 2.0 mg/kg/injection, schedule: Q01DX009 (ip), vehicle: saline with Tween-80 160 % of control | dose: 4.0 mg/kg/injection, schedule: Q01DX009 (ip), vehicle: saline with Tween-80 185 % of control
